In ChEMBL document CHEMBL1134833, “Convergent synthesis of potent peptide inhibitors of the Grb2-SH2 domain by palladium catalyzed coupling of a terminal alkyne” (Bioorg Med Chem Lett, 2001):

What follows are compounds tested against Growth factor receptor-bound protein 2 (Homo sapiens, UniProt P62993) (assay: Inhibitory concentration required against Src homology (SH2) domain of Growth factor receptor bound protein 2 by ELISA binding assay).

| Structure (SMILES) | IC50 [nM] |
| --- | --- |
| CC(=O)N[C@@H](Cc1ccc(CP(=O)(O)O)cc1)C(=O)NC1(C(=O)N[C@@H](CC(N)=O)C(=O)NCCCc2cccc3cc(O)ccc23)CCCCC1 | 42.7 |
| CC(=O)N[C@@H](Cc1ccc(CP(=O)(O)O)cc1)C(=O)NC1(C(=O)N[C@@H](CC(N)=O)C(=O)NCCCc2c(O)ccc3ccccc23)CCCCC1 [CGP-78850] | 43 |
| CC(=O)N[C@@H](Cc1ccc(CP(=O)(O)O)cc1)C(=O)NC1(C(=O)N[C@@H](CC(N)=O)C(=O)NCCCc2ccc3cccc(O)c3c2)CCCCC1 | 11.1 |
| CC(=O)N[C@@H](Cc1ccc(CP(=O)(O)O)cc1)C(=O)NC1(C(=O)N[C@@H](CC(N)=O)C(=O)NCCCc2cccc3ccc(O)cc23)CCCCC1 | 24.6 |

The remaining lines, values ahead:

| IC50 [nM] | Structure (SMILES) |
| --- | --- |
| 130 | COc1ccc2c(CCCNC(=O)[C@H](CC(N)=O)NC(=O)C3(NC(=O)[C@H](Cc4ccc(CP(=O)(O)O)cc4)NC(C)=O)CCCCC3)cccc2c1 |
| 84.4 | COc1cc2cccc(CCCNC(=O)[C@H](CC(N)=O)NC(=O)C3(NC(=O)[C@H](Cc4ccc(CP(=O)(O)O)cc4)NC(C)=O)CCCCC3)c2cc1OC |
| 42.9 | CC(=O)N[C@@H](Cc1ccc(CP(=O)(O)O)cc1)C(=O)NC1(C(=O)N[C@@H](CC(N)=O)C(=O)NCCCc2cccc3ccccc23)CCCCC1 |
